Experiment [1] has as its system M. abscessus. Put plainly: in vitro infection of THP1 monocytic human cell line with M. abscessus. The note with it: for M. abscessus survival rate: THP1 cells, 48H, untreated control 2.7, p=0.005, FIG. 4A. Format: cell-based.
A further experiment relates to M. tuberculosis. Kind of experiment: in vitro infection of THP1 monocytic human cell line with M. tuberculosis. Format: cell-based. Particulars: THP1 cells, untreated control 0.50, p=0.0165, FIG. 4B.
Another experiment relates to M. marinum. Put plainly: M. marinum infection of zebrafish. Format: in vivo. The note with it: zebrafish infected by M. marinum; FIG. 4C.
Experiment [2] relates to M. abscessus. Particulars: zebrafish, in vivo.
Experiment [3] relates to M. abscessus. Put plainly: M. abscessus in liquid culture (absence of THP1 cells). The class given is cell-based. Particulars: liquid culture medium, no THP1 cells; Treprostinil 50 μM; versus untreated; FIG. 6.
The subject of experiment [4] is zebrafish homolog of the EP2 receptor (EP2a). Kind of experiment: CRISPR EP2a KO zebrafish infected with M. abscessus. The class given is in vivo. Particulars: M. abscessus infected control and F0 CRISPR EP2a KO zebrafish; FIG. 7. The source says: To explore the mechanism of action of Treprostinil in this context, the zebrafish homolog of the EP2 receptor was knocked out using CRISPR and control and KO zebrafish were infected with M. abscessus. […] This definitively confirms that Treprostinil acts via an EP2-mediated host-directed therapeutic effect.

As to `CCCCC[C@H](O)CC[C@@H]1[C@H]2Cc3cccc(OCC(=O)O)c3C[C@H]2C[C@H]1O` [Treprostinil], the “dose response of killing of M. abscessus” value with M. abscessus [1] (FIG. 5B, THP1 killing of M. abscessus according to legend b39) is recorded as “dose response to the effect was also observed”. The figures for the “M. abscessus survival rate” value in the experiment on M. abscessus [1] (400 nM) and in the experiment on M. abscessus [1] (1 μM) were 1.07 and 1.24, respectively. The figures for the “M. tuberculosis survival rate” value with M. tuberculosis (400 nM) and in the experiment on M. tuberculosis (1 μM) were 0.44 and 0.37, respectively. Also, the “effect on M. marinum numbers in zebrafish” value in the experiment on M. marinum is reported as “no observable effect”. In addition, in the experiment on M. abscessus [2], the “killing of M. abscessus compared with imipenem” value is “significantly more effective than imipenem”. In addition, in the experiment with M. abscessus [3], the “direct antibiotic effect on M. abscessus growth” value is on record as “no difference in growth”. Also, the “Treprostinil rescue in EP2a KO zebrafish” value in experiment [4] is recorded as “completely abrogated”.
